This is an account of results in PMC9743092, “Membrane-Active Cyclic Amphiphilic Peptides: Broad-Spectrum Antibacterial Activity Alone and in Combination with Antibiotics” (Journal of Medicinal Chemistry, 2022).

In general, HC50 refers to the concentration giving 50% haemolysis. High values mean weaker haemolysis, low ones stronger haemolysis. Broadly, the amount remaining is the share of the starting amount still present when the sample was taken. High values mean greater stability, low ones a greater loss.

Converted amounts (≈) assume the structure as drawn.

For data set [1], the system named is human red blood cells (hRBCs). The following applies: red cells of human, 2 h.
Description: The hemolytic activity of all the cyclic peptides was determined using human red blood cells (hRBC) purchased from BioIVT, USA. […] Peptide-induced hemolysis was tested in triplicate by mixing 75 μL of the peptide solution in PBS (two-fold serial dilution) with 75 μL of a 4% (v/v) hRBC suspension in phosphate-buffered saline. The plates were incubated for 2 h at 37 °C without agitation and centrifuged at 1000g for 10 min. Aliquots (100 μL) of the supernatant were transferred to 96-well plates, where hemoglobin release was measured spectrophotometrically at 567 nm. Percent hemolysis was calculated by the following formula: [drawing 1] where A represents the absorbance of the peptide sample at 567 nm and A0 and At represent zero percent and 100% hemolysis determined in phosphate-buffered saline and 1% Triton X-100, respectively.
For data set [2], the system named is E. coli (ATCC 25922).
Data set [3] concerns K. pneumoniae (ATCC 700603).
For data set [4], the system named is K. pneumoniae (ATCC BAA 1705).
Data set [5] concerns P. aeruginosa (ATCC 27853).
Data set [6] has as its system Acinetobacter baumannii (NCTC 13304).
The test system of data set [7] is Acinetobacter baumannii-calcoaceticus species complex (1188767).
For data set [8], the system named is Acinetobacter baumannii-calcoaceticus species complex (1189854).
Data set [9] concerns K. pneumoniae (ATCC BAA-1705). The following applies: 24 h, ≥99.9% kill.
In data set [10] the test system is P. aeruginosa (ATCC 27883). The following applies: 24 h, ≥99.9% kill.
Data set [11] concerns E. coli (ATCC 25922). To be noted: 24 h, ≥99.9% kill.
A short description of another data set: in vitro. The following applies: human, human plasma.

Description for in vitro: For accurate quantification, we employed a mass spectrometer (Q-TOF LC/MS) with a high resolving power. To remove the background interference, the data were processed by using a narrower (±0.1 m/z) extracted ion chromatogram (EIC) window. The test peptide (100 μM) was incubated in human plasma at 37 °C in a water bath. […] Plasma proteins were precipitated by the addition of cold ethanol (200 μL) and incubated for 30 min at −20 °C. […] The samples were dissolved in water and analyzed on a Delta-Pak (Waters) C18 column (100 Å, 5 μm, 3.9 mm × 150 mm) at a flow rate of 0.3 mL/min using a linear gradient of aqueous acetonitrile in the presence of formic acid (FA; 0.1%, v/v) as an ion pair reagent. Peptides were detected by recording the absorbance at 220 nm and quantified by their peak areas of EIC. The percentage digestion of the test peptides was calculated relative to the peak areas at 0 min.

Molecule `N=C(N)NCCC[C@@H]1NC(=O)[C@H](CCCNC(=N)N)NC(=O)[C@H](CCCNC(=N)N)NC(=O)[C@H](Cc2c[nH]c3ccccc23)NC(=O)[C@H](Cc2c[nH]c3ccccc23)NC(=O)[C@H](Cc2c[nH]c3ccccc23)NC(=O)[C@H](Cc2c[nH]c3ccccc23)NC(=O)[C@H](CCCNC(=N)N)NC(=O)[C@H](CCCNC(=N)N)NC1=O` [5a, [R5W4]] had an HC50 in data set [1] of 340 µg/mL. Further, the “MIC S. aureus (1193193)” value against S. aureus (1193193) was 4 µg/mL (≈ 2.62 µM). The “MIC S. aureus (1195201)” value in the data set with S. aureus (1195201) was determined as 4 µg/mL (≈ 2.62 µM). Moreover, in the data set with S. aureus (ATCC 29213), the “MIC S. aureus (ATCC 29213)” value came to 4 µg/mL (≈ 2.62 µM). For the same molecule, the “MIC E. coli (1191008)” value with E. coli (1191008) came out at 16 µg/mL (≈ 10.5 µM). In addition, the “MIC E. coli (ATCC 25922)” value in the data set with E. coli (ATCC 25922) [2] is 16 µg/mL (≈ 10.5 µM). Also, the “MIC E. coli (ATCC BAA-2452)” value with E. coli (ATCC BAA-2452) was determined as 16 µg/mL (≈ 10.5 µM). In addition, the “MIC K. pneumoniae (ATCC 700603)” value in data set [3] was over 64 µg/mL. In addition, in the data set on K. pneumoniae (1188718), the “MIC K. pneumoniae (1188718)” value is over 64 µg/mL. Moreover, in data set [4], the “MIC K. pneumoniae (ATCC BAA 1705)” value is over 64 µg/mL. For the same molecule, the “MIC P. aeruginosa (1191191)” value against P. aeruginosa (1191191) was found to be 32 µg/mL (≈ 21 µM). Further, in the data set on P. aeruginosa (1188712), the “MIC P. aeruginosa (1188712)” value amounted to 16 µg/mL (≈ 10.5 µM). The “MIC P. aeruginosa (ATCC 27853)” value in data set [5] stood at 32 µg/mL (≈ 21 µM). Also, the “MIC Acinetobacter baumannii (NCTC 13304)” value in data set [6] is 16 µg/mL (≈ 10.5 µM). The “MIC Acinetobacter baumannii-calcoaceticus species complex (1188767)” value in data set [7] was 32 µg/mL (≈ 21 µM). In addition, the “MIC Acinetobacter baumannii-calcoaceticus species complex (1189854)” value in [8] is 16 µg/mL (≈ 10.5 µM). For the same molecule, in data set [9], the “MBC K. pneumoniae (ATCC BAA-1705)” value was 64 µg/mL (≈ 41.9 µM). Moreover, the “MBC P. aeruginosa (ATCC 27883)” value in data set [10] came to 32 µg/mL (≈ 21 µM). For the same molecule, the “MBC E. coli (ATCC 25922)” value against E. coli (ATCC 25922) [11] worked out at 16 µg/mL (≈ 10.5 µM). Also, in the data set “in vitro”, the amount remaining at 0.5 h, 100 μM is about 79% and the share remaining at 2 h, 100 μM is about 56%.
